The target of this experiment is HIS-TGFβR1 T204D (Homo sapiens (Human), UniProt P36897, T204D). As to the kind of experiment: HTRF probe-displacement assay, HIS-TGFβR1 T204D. It is filed as binding. The conditions noted are these: 1 hour at room temperature.
Chain of HIS-TGFβR1 T204D (P36897 34-503 T204D): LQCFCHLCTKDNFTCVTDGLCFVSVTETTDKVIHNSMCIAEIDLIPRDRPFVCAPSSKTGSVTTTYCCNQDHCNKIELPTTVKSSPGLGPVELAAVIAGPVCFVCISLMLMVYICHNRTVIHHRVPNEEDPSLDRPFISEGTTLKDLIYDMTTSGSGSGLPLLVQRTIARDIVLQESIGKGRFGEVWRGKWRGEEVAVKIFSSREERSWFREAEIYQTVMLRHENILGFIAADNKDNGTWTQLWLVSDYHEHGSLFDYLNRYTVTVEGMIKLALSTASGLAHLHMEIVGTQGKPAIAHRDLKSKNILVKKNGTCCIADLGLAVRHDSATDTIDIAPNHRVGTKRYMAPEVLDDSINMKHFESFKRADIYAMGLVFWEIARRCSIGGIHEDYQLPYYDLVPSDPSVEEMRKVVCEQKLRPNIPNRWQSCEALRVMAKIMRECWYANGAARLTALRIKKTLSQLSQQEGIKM
Regarding `Cc1cccc(-c2nc(Nc3ccncc3)c3cc(C(=O)N(C)C)cn3n2)n1` [Example 218, N,N-dimethyl-2-(6-methylpyridin-2-yl)-4-[(pyridin-4-yl)amino]pyrrolo[2,1-f][1,2,4]triazine-6-carboxamide], the IC50 was determined as 130 nM.

For the molecule `COc1cccc(-c2nc(Nc3ccncc3F)c3c(C(C)(C)O)ccn3n2)n1` [Example 48, 2-{4-[(3-fluoropyridin-4-yl)amino]-2-(6-methoxypyridin-2-yl)pyrrolo[2,1-f][1,2,4]triazin-5-yl}propan-2-ol], the IC50 turned out to be 32 nM.

Regarding `CCN(CC)CCNC(=O)c1cnccc1Nc1nc(-c2ccccn2)nn2cccc12` [Example 143, N-[2-(diethylamino)ethyl]-4-{[2-(pyridin-2-yl)pyrrolo[2,1-f][1,2,4]triazin-4-yl]amino}pyridine-3-carboxamide], the 50% inhibitory concentration (IC50) stood at 19 nM.

For `CCc1cc2c(Nc3ccncc3F)nc(-c3cccc(OC)n3)nn2c1` [Example 42, N-[6-ethyl-2-(6-methoxypyridin-2-yl)pyrrolo[2,1-f][1,2,4]triazin-4-yl]-3-fluoropyridin-4-amine], the IC50 is 160 nM.

In turn, `Fc1cnccc1Nc1nc(-c2ccccn2)nn2ccc(CNCCN3CCCCC3)c12` [Example 284, 3-fluoro-N-[5-({[2-(piperidin-1-yl)ethyl]amino}methyl)-2-(pyridin-2-yl)pyrrolo[2,1-f][1,2,4]triazin-4-yl]pyridin-4-amine] gave an IC50 of 4.4 nM.

For `COc1cccc(-c2nc(Nc3ccncc3F)c3c(C(O)CN4CCC(N(C)C)CC4)ccn3n2)n1` (centres unmarked) [Example 30, 2-[4-(dimethylamino)piperidin-1-yl]-1-{4-[(3-fluoropyridin-4-yl)amino]-2-(6-methoxypyridin-2-yl)pyrrolo[2,1-f][1,2,4]triazin-5-yl}ethan-1-ol], the half-maximal inhibitory concentration (IC50) was found to be 260 nM.

Consider `CC(C)(C)C(=O)Nc1cc(Nc2nc(-c3cccc(C(F)(F)F)n3)nn3cccc23)ccn1` [Example 342, 2,2-dimethyl-N-[4-({2-[6-(trifluoromethyl)pyridin-2-yl]pyrrolo[2,1-f][1,2,4]triazin-4-yl}amino)pyridin-2-yl]propanamide], for which the IC50 was 160 nM.

`O=C(NCCCN1CCS(=O)(=O)CC1)c1cnccc1Nc1nc(-c2ccccn2)nn2cccc12` [Example 148, N-[3-(1,1-dioxo-1,4-thiomorpholin-4-yl)propyl]-4-{[2-(pyridin-2-yl)pyrrolo[2,1-f][1,2,4]triazin-4-yl]amino}pyridine-3-carboxamide] gave a concentration for half-maximal inhibition (IC50) of 83 nM.

On to `COc1cccc(-c2nc(Nc3ccncc3CO)c3cccn3n2)n1` [Example 206, (4-{[2-(6-methoxypyridin-2-yl)pyrrolo[2,1-f][1,2,4]triazin-4-yl]amino}pyridin-3-yl)methanol], for which the IC50 stood at 9.2 nM.

`Cc1cccc(-c2nc(Nc3ccncc3C(=O)NCCCN3CCN(C)CC3)c3cccn3n2)n1` [Example 160, N-[3-(4-methylpiperazin-1-yl)propyl]-4-{[2-(6-methylpyridin-2-yl)pyrrolo[2,1-f][1,2,4]triazin-4-yl]amino}pyridine-3-carboxamide]: the IC50 amounted to 3.5 nM. Compared with the last molecule, the IC50 is about 2.6-fold lower.

Molecule `Cc1cccc(-c2nc(Nc3ccncc3OCCCCN(C)C)c3cccn3n2)n1` [Example 51, 3-[4-(dimethylamino)butoxy]-N-[2-(6-methylpyridin-2-yl)pyrrolo[2,1-f][1,2,4]triazin-4-yl]pyridin-4-amine] returned an IC50 of 30 nM.

`Cc1cccc(-c2nc(Nc3ccncc3C(=O)NCC3(O)CCN(C)CC3)c3cccn3n2)n1` [Example 154, N-[(4-hydroxy-1-methylpiperidin-4-yl)methyl]-4-{[2-(6-methylpyridin-2-yl)pyrrolo[2,1-f][1,2,4]triazin-4-yl]amino}pyridine-3-carboxamide] displayed an IC50 of 33 nM.

Consider `NC(=O)c1cc(Nc2nc(-c3cccc(C(F)(F)F)n3)nn3cccc23)ccn1` [Example 315, 4-({2-[6-(trifluoromethyl)pyridin-2-yl]pyrrolo[2,1-f][1,2,4]triazin-4-yl}amino)pyridine-2-carboxamide], for which the IC50 worked out at 890 nM.

Molecule `Cc1cccc(-c2nc(Nc3ccncc3F)c3c(CN4CCN(CCO)CC4)ccn3n2)n1` [Example 259, 2-[4-({4-[(3-fluoropyridin-4-yl)amino]-2-(6-methylpyridin-2-yl)pyrrolo[2,1-f][1,2,4]triazin-5-yl}methyl)piperazin-1-yl]ethan-1-ol] came in with an IC50 of 0.93 nM.

On to `Fc1cnccc1Nc1nc(-c2ccccn2)nn2ccc(CNC34CC5CC(CC(C5)C3)C4)c12` [Example 282, N-(5-{[(adamantan-1-yl)amino]methyl}-2-(pyridin-2-yl)pyrrolo[2,1-f][1,2,4]triazin-4-yl)-3-fluoropyridin-4-amine], for which the IC50 was 15 nM. This IC50 lies about 16-fold higher than the previous one.

As to `COc1cccc(-c2nc(Nc3ccnc(NCCN4CCOCC4)c3)c3cccn3n2)n1` [Example 139, 4-N-[2-(6-methoxypyridin-2-yl)pyrrolo[2,1-f][1,2,4]triazin-4-yl]-2-N-[2-(morpholin-4-yl)ethyl]pyridine-2,4-diamine], the IC50 turned out to be 190 nM.

The molecule `CC(C)NC(=O)c1cnccc1Nc1nc(-c2cccc(C(F)F)n2)nn2cccc12` [Example 194, 4-({2-[6-(difluoromethyl)pyridin-2-yl]pyrrolo[2,1-f][1,2,4]triazin-4-yl}amino)-N-(propan-2-yl)pyridine-3-carboxamide] yielded a half-inhibitory concentration (IC50) of 110 nM.

Consider `CC(C)(O)CNC(=O)c1cc(Nc2nc(-c3cccc(C(F)(F)F)n3)nn3cccc23)ccn1` [Example 324, N-(2-hydroxy-2-methylpropyl)-4-({2-[6-(trifluoromethyl)pyridin-2-yl]pyrrolo[2,1-f][1,2,4]triazin-4-yl}amino)pyridine-2-carboxamide], for which the IC50 was determined as 4400 nM. This IC50 lies about 40-fold higher than the previous one.

In turn, `O=C(N[C@H]1CCCC[C@@H]1O)c1cnccc1Nc1nc(-c2cccc(C(F)F)n2)nn2cccc12` [Example 175, 4-({2-[6-(difluoromethyl)pyridin-2-yl]pyrrolo[2,1-f][1,2,4]triazin-4-yl}amino)-N-[(1S,2S)-2-hydroxycyclohexyl]pyridine-3-carboxamide] had an IC50 of 480 nM.

On to `O[C@H]1CCN(Cc2ccn3nc(-c4cccc(C(F)F)n4)nc(Nc4ccncc4F)c23)C1` [Example 251, (3S)-1-({2-[6-(difluoromethyl)pyridin-2-yl]-4-[(3-fluoropyridin-4-yl)amino]pyrrolo[2,1-f][1,2,4]triazin-5-yl}methyl)pyrrolidin-3-ol], for which the IC50 amounted to 0.59 nM.

For the molecule `COc1cccc(-c2nc(Nc3ccncc3F)c3c(C(O)CO)ccn3n2)n1` (centres unmarked) [Example 28, 1-{4-[(3-fluoropyridin-4-yl)amino]-2-(6-methoxypyridin-2-yl)pyrrolo[2,1-f][1,2,4]triazin-5-yl}ethane-1,2-diol], the IC50 turned out to be 16 nM.

As for `O=C(c1cnccc1Nc1nc(-c2cccc(C(F)F)n2)nn2cccc12)N1CCC(O)CC1` [Example 200, 1-[4-({2-[6-(difluoromethyl)pyridin-2-yl]pyrrolo[2,1-f][1,2,4]triazin-4-yl}amino)pyridine-3-carbonyl]piperidin-4-ol], the concentration for half-maximal inhibition (IC50) came to 3500 nM.

On to `CC(C)(O)CNC(=O)c1cnccc1Nc1nc(-c2cccc(C(F)F)n2)nn2cccc12` [Example 188, 4-({2-[6-(difluoromethyl)pyridin-2-yl]pyrrolo[2,1-f][1,2,4]triazin-4-yl}amino)-N-(2-hydroxy-2-methylpropyl)pyridine-3-carboxamide], for which the IC50 came to 49 nM.

Molecule `Cc1nc(-c2nc(Nc3ccnc(NC(=O)C4CC4)c3)c3cccn3n2)ccc1F` [Example 345, N-(4-{[2-(5-fluoro-6-methylpyridin-2-yl)pyrrolo[2,1-f][1,2,4]triazin-4-yl]amino}pyridin-2-yl)cyclopropanecarboxamide] gave an IC50 of 1.4 nM.

`Cc1cccc(-c2nc(Nc3ccncc3C(=O)NCC(C)(C)O)c3cccn3n2)n1` [Example 156, N-(2-hydroxy-2-methylpropyl)-4-{[2-(6-methylpyridin-2-yl)pyrrolo[2,1-f][1,2,4]triazin-4-yl]amino}pyridine-3-carboxamide] yielded a concentration for half-maximal inhibition (IC50) of 50 nM.

Consider `FC(F)(F)c1cccc(-c2nc(Nc3ccncc3Cl)c3cccn3n2)n1` [Example 86, 3-chloro-N-{2-[6-(trifluoromethyl)pyridin-2-yl]pyrrolo[2,1-f][1,2,4]triazin-4-yl}pyridin-4-amine], for which the half-maximal inhibitory concentration (IC50) was 1.9 nM.

In the case of `Fc1ccc(-c2nc(Nc3ccncc3Cl)c3cccn3n2)nc1` [Example 4, 3-chloro-N-[2-(5-fluoropyridin-2-yl)pyrrolo[2,1-f][1,2,4]triazin-4-yl]pyridin-4-amine], the IC50 was determined as 0.59 nM.

On to `O=C(CN1CCCCC1)Nc1cc(Nc2nc(-c3cccc(C(F)(F)F)n3)nn3cccc23)ccn1` [Example 329, 2-(piperidin-1-yl)-N-[4-({2-[6-(trifluoromethyl)pyridin-2-yl]pyrrolo[2,1-f][1,2,4]triazin-4-yl}amino)pyridin-2-yl]acetamide], for which the IC50 is 1.7 nM.

In the case of `CN1CCN(Cc2ccn3nc(-c4ccccn4)nc(Nc4ccncc4F)c23)CC1` [Example 127, 3-fluoro-N-{5-[(4-methylpiperazin-1-yl)methyl]-2-(pyridin-2-yl)pyrrolo[2,1-f][1,2,4]triazin-4-yl}pyridin-4-amine], the IC50 amounted to 9.1 nM.

Regarding `CC(=O)Nc1cc(Nc2nc(-c3ccc(F)c(C)n3)nn3cccc23)ccn1` [Example 19, N-(4-{[2-(5-fluoro-6-methylpyridin-2-yl)pyrrolo[2,1-f][1,2,4]triazin-4-yl]amino}pyridin-2-yl)acetamide], the IC50 turned out to be 0.84 nM.

Consider `O=C(CN1CC[C@H](O)C1)Nc1cc(Nc2nc(-c3cccc(C(F)(F)F)n3)nn3cccc23)ccn1` [Example 325, 2-[(3S)-3-hydroxypyrrolidin-1-yl]-N-[4-({2-[6-(trifluoromethyl)pyridin-2-yl]pyrrolo[2,1-f][1,2,4]triazin-4-yl}amino)pyridin-2-yl]acetamide], for which the IC50 is 10 nM.

Consider `OC12C[C@H]3C[C@@H](C1)CC(NCc1ccn4nc(-c5ccccn5)nc(Nc5ccncc5F)c14)(C3)C2` [Example 237, (5R,7S)-3-[({4-[(3-fluoropyridin-4-yl)amino]-2-(pyridin-2-yl)pyrrolo[2,1-f][1,2,4]triazin-5-yl}methyl)amino]adamantan-1-ol], for which the IC50 amounted to 1.2 nM.

Source of the values: patent US10336761B2, “TGFβ receptor antagonist” (BRISTOL-MYERS SQUIBB COMPANY, priority 2015, dated 2019).
